In US10344060B2 (priority 2013, dated 2019):
Like-named read-outs stand apart in the source and are kept apart here.

Columns and labels:
Test in all cases: cell-based
Type in all cases: cell-based
hNav1.7 = hNav1.7 (Homo sapiens, UniProt Q15858); details: read-out: PX hNav1.7 Tonic IC50
hNav1.4 = hNav1.4 (Homo sapiens, UniProt P35499); details: Table 12; for IC50: PatchXpress, tonic block, read-out: PX hNav1.4 Tonic IC50; for Nav1.4/Nav1.7: ratio of PX tonic IC50 values
hNav1.6 = hNav1.6 (Homo sapiens, UniProt Q9UQD0); details: Table 15; for Nav1.6/Nav1.7: ratio of PX tonic IC50 values; for IC50: read-out: PX hNav1.6 Tonic IC50
[1] = Table 12, PatchXpress, tonic block

Chain of hNav1.4 (P35499 whole entry): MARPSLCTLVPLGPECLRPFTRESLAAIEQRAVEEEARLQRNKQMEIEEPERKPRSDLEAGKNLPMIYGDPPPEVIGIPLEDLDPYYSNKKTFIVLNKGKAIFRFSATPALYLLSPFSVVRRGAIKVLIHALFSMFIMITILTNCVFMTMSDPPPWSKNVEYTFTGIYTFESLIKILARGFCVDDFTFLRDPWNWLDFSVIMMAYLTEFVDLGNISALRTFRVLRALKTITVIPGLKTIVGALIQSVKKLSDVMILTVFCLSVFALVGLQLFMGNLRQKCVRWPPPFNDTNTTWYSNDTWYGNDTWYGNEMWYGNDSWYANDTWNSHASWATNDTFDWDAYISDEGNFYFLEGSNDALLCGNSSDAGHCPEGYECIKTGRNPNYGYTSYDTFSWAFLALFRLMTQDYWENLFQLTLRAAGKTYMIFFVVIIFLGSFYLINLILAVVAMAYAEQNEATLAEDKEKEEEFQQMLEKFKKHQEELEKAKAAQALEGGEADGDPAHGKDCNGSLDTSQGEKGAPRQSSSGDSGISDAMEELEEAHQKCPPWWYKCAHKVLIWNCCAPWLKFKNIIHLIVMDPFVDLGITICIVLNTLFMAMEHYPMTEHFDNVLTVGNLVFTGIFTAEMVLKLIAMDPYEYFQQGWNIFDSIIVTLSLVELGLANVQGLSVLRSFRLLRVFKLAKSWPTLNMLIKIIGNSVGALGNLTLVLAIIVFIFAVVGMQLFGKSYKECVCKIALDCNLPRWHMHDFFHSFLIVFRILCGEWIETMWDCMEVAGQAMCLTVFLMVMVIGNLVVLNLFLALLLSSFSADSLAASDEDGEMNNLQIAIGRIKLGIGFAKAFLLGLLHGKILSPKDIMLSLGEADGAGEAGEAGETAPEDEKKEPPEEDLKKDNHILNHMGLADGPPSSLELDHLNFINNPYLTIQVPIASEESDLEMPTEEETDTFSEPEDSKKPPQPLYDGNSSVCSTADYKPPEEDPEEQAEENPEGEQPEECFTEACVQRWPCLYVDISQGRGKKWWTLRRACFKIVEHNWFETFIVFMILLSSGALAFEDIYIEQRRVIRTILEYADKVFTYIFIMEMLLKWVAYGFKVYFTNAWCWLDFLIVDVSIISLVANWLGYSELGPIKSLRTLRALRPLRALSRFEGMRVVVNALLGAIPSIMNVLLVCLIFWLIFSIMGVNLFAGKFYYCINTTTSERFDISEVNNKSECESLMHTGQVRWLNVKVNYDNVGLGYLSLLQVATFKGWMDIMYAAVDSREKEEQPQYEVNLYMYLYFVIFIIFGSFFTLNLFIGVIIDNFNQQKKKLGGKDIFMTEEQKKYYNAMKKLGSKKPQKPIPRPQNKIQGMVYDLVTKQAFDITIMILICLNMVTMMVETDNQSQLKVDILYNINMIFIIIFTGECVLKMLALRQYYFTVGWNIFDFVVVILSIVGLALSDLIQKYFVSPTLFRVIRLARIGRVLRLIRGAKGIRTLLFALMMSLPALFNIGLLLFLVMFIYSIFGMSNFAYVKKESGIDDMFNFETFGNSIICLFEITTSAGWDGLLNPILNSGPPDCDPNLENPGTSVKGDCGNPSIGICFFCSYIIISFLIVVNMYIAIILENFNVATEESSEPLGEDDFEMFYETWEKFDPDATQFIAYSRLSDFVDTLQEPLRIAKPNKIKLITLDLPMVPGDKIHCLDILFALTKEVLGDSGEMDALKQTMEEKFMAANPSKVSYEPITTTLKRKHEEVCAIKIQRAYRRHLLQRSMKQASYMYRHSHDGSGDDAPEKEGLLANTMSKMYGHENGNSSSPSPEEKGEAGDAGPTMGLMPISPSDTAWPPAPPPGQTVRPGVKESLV
Chain of hNav1.7 (Q15858 whole entry): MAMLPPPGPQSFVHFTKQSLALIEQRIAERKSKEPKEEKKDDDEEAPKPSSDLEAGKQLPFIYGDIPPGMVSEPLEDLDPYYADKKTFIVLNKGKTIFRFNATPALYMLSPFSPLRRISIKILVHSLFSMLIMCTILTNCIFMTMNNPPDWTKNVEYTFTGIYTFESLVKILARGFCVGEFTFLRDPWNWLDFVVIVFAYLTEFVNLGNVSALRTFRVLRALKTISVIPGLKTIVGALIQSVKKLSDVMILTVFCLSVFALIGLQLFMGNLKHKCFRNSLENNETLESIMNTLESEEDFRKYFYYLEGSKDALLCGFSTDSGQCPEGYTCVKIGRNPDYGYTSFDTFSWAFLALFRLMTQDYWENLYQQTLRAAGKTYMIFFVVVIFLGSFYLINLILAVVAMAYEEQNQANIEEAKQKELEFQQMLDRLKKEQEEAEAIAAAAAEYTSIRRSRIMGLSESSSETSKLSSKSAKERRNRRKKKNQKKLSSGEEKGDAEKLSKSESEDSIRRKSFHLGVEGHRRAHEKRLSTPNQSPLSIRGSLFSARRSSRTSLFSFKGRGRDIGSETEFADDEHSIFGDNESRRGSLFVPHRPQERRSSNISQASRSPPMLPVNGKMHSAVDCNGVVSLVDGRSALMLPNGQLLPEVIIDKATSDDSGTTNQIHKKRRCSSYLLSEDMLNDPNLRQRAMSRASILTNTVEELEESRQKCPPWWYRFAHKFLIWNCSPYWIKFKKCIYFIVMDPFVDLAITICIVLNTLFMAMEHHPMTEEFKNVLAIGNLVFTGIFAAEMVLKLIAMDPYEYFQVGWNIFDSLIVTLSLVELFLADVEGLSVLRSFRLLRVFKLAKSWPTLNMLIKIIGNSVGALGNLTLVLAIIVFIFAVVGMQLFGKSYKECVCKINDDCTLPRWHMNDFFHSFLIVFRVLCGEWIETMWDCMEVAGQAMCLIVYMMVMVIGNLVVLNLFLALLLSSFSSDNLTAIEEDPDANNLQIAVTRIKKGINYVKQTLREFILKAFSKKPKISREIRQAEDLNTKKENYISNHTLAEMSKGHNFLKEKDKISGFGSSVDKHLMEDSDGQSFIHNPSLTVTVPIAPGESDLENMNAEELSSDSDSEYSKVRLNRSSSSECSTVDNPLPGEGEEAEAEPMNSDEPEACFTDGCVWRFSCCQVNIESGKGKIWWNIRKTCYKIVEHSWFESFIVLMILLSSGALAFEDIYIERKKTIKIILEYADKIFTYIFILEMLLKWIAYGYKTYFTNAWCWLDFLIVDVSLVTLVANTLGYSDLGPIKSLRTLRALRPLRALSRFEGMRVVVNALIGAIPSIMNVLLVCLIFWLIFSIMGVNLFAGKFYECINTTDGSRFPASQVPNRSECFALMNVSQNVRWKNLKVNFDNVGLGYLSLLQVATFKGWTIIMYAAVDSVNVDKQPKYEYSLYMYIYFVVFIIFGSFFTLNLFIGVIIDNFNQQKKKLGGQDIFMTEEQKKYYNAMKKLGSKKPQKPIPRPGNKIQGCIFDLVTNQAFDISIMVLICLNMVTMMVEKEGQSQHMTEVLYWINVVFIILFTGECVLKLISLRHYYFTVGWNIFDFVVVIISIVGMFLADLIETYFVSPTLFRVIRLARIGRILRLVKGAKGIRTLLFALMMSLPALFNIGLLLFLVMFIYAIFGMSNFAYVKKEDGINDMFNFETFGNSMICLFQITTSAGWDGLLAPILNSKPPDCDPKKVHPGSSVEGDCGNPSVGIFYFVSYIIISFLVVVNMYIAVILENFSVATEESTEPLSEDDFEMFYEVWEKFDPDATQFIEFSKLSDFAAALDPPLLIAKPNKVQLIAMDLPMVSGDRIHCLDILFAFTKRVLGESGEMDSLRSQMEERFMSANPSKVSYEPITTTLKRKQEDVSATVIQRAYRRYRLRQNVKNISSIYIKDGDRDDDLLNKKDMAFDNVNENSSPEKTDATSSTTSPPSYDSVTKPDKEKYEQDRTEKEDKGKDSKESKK

| Compound | IC50 (hNav1.7; [1]) | IC50 (hNav1.4) | Nav1.4/Nav1.7 (hNav1.4) | Nav1.6/Nav1.7 (hNav1.6) | IC50 (hNav1.6) | IC50 (hNav1.7; Table 15) |
| --- | --- | --- | --- | --- | --- | --- |
| C#CC[C@H](N)C(=O)N[C@@H](CCC(=O)O)C(=O)N[C@H]1CSSC[C@@H]2NC(=O)[C@@H]3CSSC[C@@H](C(=O)N[C@@H](CCCNC(=N)N)C(=O)N[C@@H](CCCCN)C(=O)N[C@@H](CCC(=O)O)C(=O)N[C@H](C(N)=O)[C@@H](C)CC)NC(=O)[C@H](Cc4c[nH]c5ccccc45)NC(=O)[C@H](CC(C)C)NC(=O)[C@H](CCCCN)NC(=O)[C@H](CSSC[C@H](NC(=O)[C@H]([C@@H](C)O)NC(=O)[C@H](Cc4c[nH]c5ccccc45)NC(=O)[C@H](CCCC)NC(=O)[C@H](Cc4c[nH]c5ccccc45)NC(=O)[C@H](CCCCN)NC(=O)[C@H](CCC(N)=O)NC1=O)C(=O)N[C@@H](CC(=O)O)C(=O)N[C@@H](CO)C(=O)N[C@@H](CCC(=O)O)C(=O)N[C@@H](CCCNC(=N)N)C(=O)N[C@@H](C)C(=O)N3)NC(=O)[C@H](CCCNC(=N)N)NC(=O)[C@H](CC(C)C)NC(=O)CNC(=O)[C@H](CCC(=O)O)NC2=O [compound 742] | 4.14 nM | 1720 nM | 416 | 333 | 1380 nM |  |
| C#CC[C@@H]1NC(=O)[C@@H]2CSSC[C@H](NC(=O)[C@H](Cc3ccc(O)cc3)NC(=O)[C@@H](N)CC#N)C(=O)N[C@@H](CCC(N)=O)C(=O)N[C@@H](CCCCN)C(=O)N[C@@H](Cc3c[nH]c4ccccc34)C(=O)N[C@@H](CCCC)C(=O)N[C@@H](Cc3c[nH]c4ccccc34)C(=O)N[C@@H]([C@@H](C)O)C(=O)N[C@H]3CSSC[C@H](NC(=O)[C@H](CCCNC(=N)N)NC(=O)[C@H](CC(C)C)NC(=O)CNC1=O)C(=O)N[C@@H](CCCCN)C(=O)N[C@@H](CC(C)C)C(=O)N[C@@H](Cc1c[nH]c4ccccc14)C(=O)N[C@H](C(=O)N[C@@H](CCCNC(=N)N)C(=O)N[C@@H](CCCCN)C(=O)N[C@@H](CCC(=O)O)C(=O)N[C@H](C(N)=O)[C@@H](C)CC)CSSC[C@H](NC(=O)[C@H](C)NC(=O)[C@H](CCCNC(=N)N)NC(=O)[C@H](CCC(=O)O)NC(=O)[C@H](CO)NC(=O)[C@H](CC(=O)O)NC3=O)C(=O)N2 [compound 732] | 0.87 nM | 253 nM | 291 | 1972 | 1720 nM |  |
| C#CC[C@H](N)C(=O)N[C@@H](Cc1ccc(O)cc1)C(=O)N[C@H]1CSSC[C@@H]2NC(=O)[C@@H]3CSSC[C@@H](C(=O)N[C@@H](CCCNC(=N)N)C(=O)N[C@@H](CCCCN)C(=O)N[C@@H](CCC(=O)O)C(=O)N[C@H](C(N)=O)[C@@H](C)CC)NC(=O)[C@H](Cc4c[nH]c5ccccc45)NC(=O)[C@H](CC(C)C)NC(=O)[C@H](CCCCN)NC(=O)[C@H](CSSC[C@H](NC(=O)[C@H]([C@@H](C)O)NC(=O)[C@H](Cc4c[nH]c5ccccc45)NC(=O)[C@H](CCCC)NC(=O)[C@H](Cc4c[nH]c5ccccc45)NC(=O)[C@H](CCCCN)NC(=O)[C@H](CCC(N)=O)NC1=O)C(=O)N[C@@H](CC(=O)O)C(=O)N[C@@H](CO)C(=O)N[C@@H](CCCCN)C(=O)N[C@@H](CCCNC(=N)N)C(=O)N[C@@H](C)C(=O)N3)NC(=O)[C@H](CCCCN)NC(=O)[C@H](CC(C)C)NC(=O)CNC(=O)[C@H](CCC(=O)O)NC2=O [compound 721] | 0.519 nM | 185 nM | 357 | 471 | 245 nM |  |
| C#CC[C@H](NC(=O)[C@@H](N)CCC(=O)O)C(=O)N[C@@H](CCC(=O)O)C(=O)N[C@H]1CSSC[C@@H]2NC(=O)[C@@H]3CSSC[C@@H](C(=O)N[C@@H](CCCNC(=N)N)C(=O)N[C@@H](CCCCN)C(=O)N[C@@H](CCC(=O)O)C(=O)N[C@H](C(N)=O)[C@@H](C)CC)NC(=O)[C@H](Cc4c[nH]c5ccccc45)NC(=O)[C@H](CC(C)C)NC(=O)[C@H](CCCCN)NC(=O)[C@H](CSSC[C@H](NC(=O)[C@H]([C@@H](C)O)NC(=O)[C@H](Cc4c[nH]c5ccccc45)NC(=O)[C@H](CCCC)NC(=O)[C@H](Cc4c[nH]c5ccccc45)NC(=O)[C@H](CCCCN)NC(=O)[C@H](CCC(N)=O)NC1=O)C(=O)N[C@@H](CC(=O)O)C(=O)N[C@@H](CCC(=O)O)C(=O)N[C@@H](CCCCN)C(=O)N[C@@H](CCCNC(=N)N)C(=O)N[C@@H](C)C(=O)N3)NC(=O)[C@H](CCCNC(=N)N)NC(=O)[C@H](CC(C)C)NC(=O)CNC(=O)[C@H](CCC(=O)O)NC2=O [compound 741] | 5.59 nM | 1680 nM | 302 | 1014 | 5660 nM |  |
| C#CC[C@H](N)C(=O)N[C@@H](Cc1ccc(O)cc1)C(=O)N[C@H]1CSSC[C@@H]2NC(=O)[C@@H]3CSSC[C@@H](C(=O)N[C@@H](CCCNC(=N)N)C(=O)N[C@@H](CCCCN)C(=O)N[C@@H](CCC(=O)O)C(=O)N[C@H](C(N)=O)[C@@H](C)CC)NC(=O)[C@H](Cc4c[nH]c5ccccc45)NC(=O)[C@H](CC(C)C)NC(=O)[C@H](CCCCN)NC(=O)[C@H](CSSC[C@H](NC(=O)[C@H]([C@@H](C)O)NC(=O)[C@H](Cc4c[nH]c5ccccc45)NC(=O)[C@H](CCCC)NC(=O)[C@H](CCc4ccccc4)NC(=O)[C@H](CCCCN)NC(=O)[C@H](CCC(N)=O)NC1=O)C(=O)N[C@@H](CC(=O)O)C(=O)N[C@@H](CO)C(=O)N[C@@H](CCCCN)C(=O)N[C@@H](CCCNC(=N)N)C(=O)N[C@@H](C)C(=O)N3)NC(=O)[C@H](CCCNC(=N)N)NC(=O)[C@H](CC(C)C)NC(=O)CNC(=O)[C@H](CCC(=O)O)NC2=O [compound 844] | 0.599 nM | 258 nM | 431 | 1666 |  | 0.599 nM |
| C#CC[C@H](NC(=O)[C@@H](N)CCC(=O)O)C(=O)N[C@@H](Cc1ccc(O)cc1)C(=O)N[C@H]1CSSC[C@@H]2NC(=O)[C@@H]3CSSC[C@@H](C(=O)N[C@@H](CCCNC(=N)N)C(=O)N[C@@H](CCCCN)C(=O)N[C@@H](CCC(=O)O)C(=O)N[C@H](C(N)=O)[C@@H](C)CC)NC(=O)[C@H](Cc4c[nH]c5ccccc45)NC(=O)[C@H](CC(C)C)NC(=O)[C@H](CCCCN)NC(=O)[C@H](CSSC[C@H](NC(=O)[C@H]([C@@H](C)O)NC(=O)[C@H](Cc4c[nH]c5ccccc45)NC(=O)[C@H](CCCC)NC(=O)[C@H](Cc4c[nH]c5ccccc45)NC(=O)[C@H](CCCCN)NC(=O)[C@H](CCC(N)=O)NC1=O)C(=O)N[C@@H](CC(=O)O)C(=O)N[C@@H](CCC(=O)O)C(=O)N[C@@H](CCCCN)C(=O)N[C@@H](CCCNC(=N)N)C(=O)N[C@@H](C)C(=O)N3)NC(=O)[C@H](CCCNC(=N)N)NC(=O)[C@H](CC(C)C)NC(=O)CNC(=O)[C@H](CCC(=O)O)NC2=O [compound 734] | 2.33 nM | 1050 nM | 452 | 1233 | 2870 nM |  |
| C#CC[C@H](NC(=O)[C@@H](N)CCC(=O)O)C(=O)N[C@H]1CSSC[C@@H]2NC(=O)[C@@H]3CSSC[C@@H](C(=O)N[C@@H](CCCNC(=N)N)C(=O)N[C@@H](CCCCN)C(=O)N[C@@H](CCC(=O)O)C(=O)N[C@H](C(N)=O)[C@@H](C)CC)NC(=O)[C@H](Cc4c[nH]c5ccccc45)NC(=O)[C@H](CC(C)C)NC(=O)[C@H](CCCCN)NC(=O)[C@H](CSSC[C@H](NC(=O)[C@H]([C@@H](C)O)NC(=O)[C@H](Cc4c[nH]c5ccccc45)NC(=O)[C@H](CCCC)NC(=O)[C@H](Cc4c[nH]c5ccccc45)NC(=O)[C@H](CCCCN)NC(=O)[C@H](CCC(N)=O)NC1=O)C(=O)N[C@@H](CC(=O)O)C(=O)N[C@@H](CCC(=O)O)C(=O)N[C@@H](CCC(=O)O)C(=O)N[C@@H](CCCNC(=N)N)C(=O)N[C@@H](C)C(=O)N3)NC(=O)[C@H](CCCNC(=N)N)NC(=O)[C@H](CC(C)C)NC(=O)CNC(=O)[C@H](CCC(=O)O)NC2=O [compound 748] | 6.66 nM | 2150 nM | 323 | 410 | 2730 nM |  |
| C#CC[C@H](NC(=O)[C@@H](N)CCC(=O)O)C(=O)N[C@H]1CSSC[C@@H]2NC(=O)[C@@H]3CSSC[C@@H](C(=O)N[C@@H](CCCNC(=N)N)C(=O)N[C@@H](CCCCN)C(=O)N[C@@H](CCC(=O)O)C(=O)N[C@H](C(N)=O)[C@@H](C)CC)NC(=O)[C@H](Cc4c[nH]c5ccccc45)NC(=O)[C@H](CC(C)C)NC(=O)[C@H](CCCCN)NC(=O)[C@H](CSSC[C@H](NC(=O)[C@H]([C@@H](C)O)NC(=O)[C@H](Cc4c[nH]c5ccccc45)NC(=O)[C@H](CCCC)NC(=O)[C@H](Cc4c[nH]c5ccccc45)NC(=O)[C@H](CCCCN)NC(=O)[C@H](CCC(N)=O)NC1=O)C(=O)N[C@@H](CC(=O)O)C(=O)N[C@@H](CO)C(=O)N[C@@H](CCCCN)C(=O)N[C@@H](CCCNC(=N)N)C(=O)N[C@@H](CCC(=O)O)C(=O)N3)NC(=O)[C@H](CCCNC(=N)N)NC(=O)[C@H](CC(C)C)NC(=O)CNC(=O)[C@H](CCC(=O)O)NC2=O [compound 738] | 0.563 nM | 246 nM | 437 | 1071 | 563 nM | 0.525 nM |
| C#CC[C@H](NC(=O)[C@@H](N)CCC(=O)O)C(=O)N[C@H]1CSSC[C@@H]2NC(=O)[C@@H]3CSSC[C@@H](C(=O)N[C@@H](CCCNC(=N)N)C(=O)N[C@@H](CCCCN)C(=O)N[C@@H](CCC(=O)O)C(=O)N[C@H](C(N)=O)[C@@H](C)CC)NC(=O)[C@H](Cc4c[nH]c5ccccc45)NC(=O)[C@H](CC(C)C)NC(=O)[C@H](CCCCN)NC(=O)[C@H](CSSC[C@H](NC(=O)[C@H]([C@@H](C)O)NC(=O)[C@H](Cc4c[nH]c5ccccc45)NC(=O)[C@H](CCCC)NC(=O)[C@H](Cc4c[nH]c5ccccc45)NC(=O)[C@H](CCCCN)NC(=O)[C@H](CCC(N)=O)NC1=O)C(=O)N[C@@H](CC(=O)O)C(=O)N[C@@H](CCC(=O)O)C(=O)N[C@@H](CCCCN)C(=O)N[C@@H](CCCNC(=N)N)C(=O)N[C@@H](C)C(=O)N3)NC(=O)[C@H](CCCNC(=N)N)NC(=O)[C@H](CC(C)C)NC(=O)CNC(=O)[C@H](CCC(=O)O)NC2=O [compound 736] | 1.46 nM | 547 nM | 375 | 1730 | 2520 nM |  |
